Measured values as given in patent US8673652B2, “Immunoassay with extended detection window” (priority 2010, dated 2014).
Values after ≈ are worked out from the molar mass of the structure shown.

What was measured:
[1] = tested on: polyclonal antibody raised against zolpidem analogue derivatised at the 4'-phenyl ring coupled to BTG; test: Competitive ELISA for zolpidem (antibody specificity and sensitivity); format: binding, sheep; conditions: for IC50 (ng/ml) / IC50: competitive ELISA, hapten-HRP conjugate, absorbance at 450 nm; for % CR = percentage cross-reactivity based on 100% specificity to zolpidem: relative to zolpidem = 100%
Experimental: Analogues of zolpidem derivatised at the 4′-phenyl ring were coupled by way of a crosslinker to bovine thyroglobulin (BTG). The resulting immunogens were administered separately to adult sheep on a monthly basis to provide target-specific polyclonal antisera. IgG was extracted from the antisera via caprylic acid/ammonium sulphate precipitation of immunoglobulin. Microtitre plates were coated with antibody (125 μl/well) in coating buffer (10 mM Tris pH 8.5) at 37° C. for 2 h. The plates were then washed 4 times over 10 mins with working strength TBST. 50 μl of sample/standard (zolpidem, Sequioa SRP00500z; alpidem, TRC A575560; zaleplon, Sequioa SRP00300z; zopiclone, Sequioa SRP02000z; zolpidem Carboxylic Acid, Randox LK865 and zolpidem carboxylic acid, Randox LK855) was added to the appropriate wells in triplicate, followed by 75 μl of hapten-HRP conjugate and incubated at 25° C. for 1 h. The plates were then washed and 125 μl of TMB (Randox, 4380-15) was added to each well and left at room temperature for 20 mins in the dark. The reaction was stopped using 125 μl of 0.2M sulphuric acid. The absorbances were read at 450 nm with an ELISA microplate reader (BIO-TEK Instruments, Elx800) and the means calculated. Antibody specificity and sensitivity were then determined.
Competitive ELISA results in Table 1 and FIG. 3 highlight the specificity of the antibody of the disclosure towards zolpidem and cross-reactivity towards 4-[3-(2-N,N-dimethylamino-2-oxoethyl)-6-methylimidazo[1,2-a]pyridin-2-yl]benzoic acid. […] The disclosure, through its unique immunogens and antibodies, thus enables methods and kits able to detect and determine zolpidem and/or 4-[3-(2-N,N-dimethylamino-2-oxoethyl)-6-methylimidazo[1,2-a]pyridin-2-yl]benzoic acid with high sensitivity.

[2] = cited from earlier work

Row | Structure (SMILES) | IC50 (ng/ml) [1] | % CR = percentage cross-reactivity based on 100% specificity to zolpidem [1] | IC50 [1] [ng/mL] | half-life ([2]; upon ingestion) [h] | share of metabolite produced by cytochrome P450 mediated metabolism of zolpidem ([2]; metabolism mediated by cytochrome P450)
1 | CCN(C(C)=O)c1cccc(-c2ccnc3c(C#N)cnn23)c1 [Zaleplon, zaleplon] | >>50 ng/ml | <<1.26% | – | – | –
2 | CCCN(CCC)C(=O)Cc1c(-c2ccc(Cl)cc2)nc2ccc(Cl)cn12 [Alpidem, alpidem] | >>50 ng/ml | <<1.26% | – | – | –
3 | Cc1ccc(-c2nc3ccc(C(=O)O)cn3c2CC(=O)N(C)C)cc1 [Hapten M2, 3-(2-N,N-dimethylamino-2-oxoethyl)-2-(4-methylphenyl)imidazo[1,2-a]pyridin-6-yl carboxylic acid] | – | <0.13% | >500 | – | –
4 | CN1CCN(C(=O)OC2c3nccnc3C(=O)N2c2ccc(Cl)cn2)CC1 (centres unmarked) [Zopiclone, zopiclone] | >>50 ng/ml | <<1.26% | – | – | –
5 | Cc1ccc(-c2nc3ccc(C)cn3c2CC(=O)N(C)C)cc1 [Zolpidem, N,N-dimethyl-2-[6-methyl-2-(4-methylphenyl)imidazo[1,2-a]pyridin-3-yl]acetamide] | – | 100% | 0.63 (≈ 2.05 nM) | 1.5 to 3 | –
6 | Cc1ccc2nc(-c3ccc(C(=O)O)cc3)c(CC(=O)N(C)C)n2c1 [Hapten M1, 4-[3-(2-N,N-dimethylamino-2-oxoethyl)-6-methylimidazo[1,2-a]pyridin-2-yl]benzoic acid] | – | 18.6% | 3.33 (≈ 9.87 nM) | – | more than 80%
